What was measured:
AtICS1 [1] = biological target: T1, AtICS1 (Arabidopsis thaliana, UniProt Q9S7H8); test: isochorismate converted into SA, SA measured; type: biochemical; conditions: 1 mM barium chorismate, 10 mM MgCl2, pH 7.5, 30 C, 1 h; crude E. coli fraction
T1 construct: gene ICS1; putative chloroplast transit peptide removed, N-terminal His6 (pET28a), E. coli SHuffle T7, crude desalted protein fraction; also C-terminal 3xFLAG in N. benthamiana leaves

NbICS = NbICS (Nicotiana benthamiana, UniProt A0A286T8R2); test: in planta SA accumulation with co-expressed IPL; type: cell-based; conditions: endogenous chorismate, N. benthamiana leaves, ICS to IPL 1:19
OsICS = biological target: T2, OsICS (Oryza sativa, UniProt A0A286T796); test: in planta SA accumulation with co-expressed IPL; type: cell-based; conditions: endogenous chorismate, N. benthamiana leaves, transit peptide replaced
T2 construct: own transit peptide replaced by that of AtICS1 or of tobacco Rubisco small subunit; N. benthamiana leaves, P. fluorescens IPL PmsB as coupling enzyme
T2 sequence (A0A286T796 46-581): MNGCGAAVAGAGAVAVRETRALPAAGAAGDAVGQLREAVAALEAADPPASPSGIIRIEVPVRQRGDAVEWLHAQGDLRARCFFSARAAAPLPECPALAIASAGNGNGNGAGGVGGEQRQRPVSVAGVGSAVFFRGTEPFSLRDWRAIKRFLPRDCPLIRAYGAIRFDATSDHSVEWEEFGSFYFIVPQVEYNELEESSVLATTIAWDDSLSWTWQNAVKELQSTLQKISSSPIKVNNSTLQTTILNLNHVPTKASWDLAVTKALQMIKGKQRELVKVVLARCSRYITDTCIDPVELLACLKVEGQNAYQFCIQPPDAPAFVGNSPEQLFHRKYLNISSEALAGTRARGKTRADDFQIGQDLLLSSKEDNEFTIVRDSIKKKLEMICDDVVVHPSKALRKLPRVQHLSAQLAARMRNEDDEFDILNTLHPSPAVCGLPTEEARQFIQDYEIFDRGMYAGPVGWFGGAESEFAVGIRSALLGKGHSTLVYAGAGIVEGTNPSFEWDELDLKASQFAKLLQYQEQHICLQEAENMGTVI

EntC = biological target: T3, EntC (Escherichia coli, UniProt P0AEJ2); test: isochorismate converted into SA, SA measured; type: biochemical; conditions: 1 mM barium chorismate, 10 mM MgCl2, pH 7.5, 30 C, 1 h; crude E. coli fraction; linearity not confirmed for EntC in E. coli
T3 construct: N-terminal His6 (pET28a), E. coli SHuffle T7, crude desalted protein fraction; also with tobacco Rubisco small subunit transit peptide and 3xFLAG in N. benthamiana
T3 sequence (P0AEJ2 1-391): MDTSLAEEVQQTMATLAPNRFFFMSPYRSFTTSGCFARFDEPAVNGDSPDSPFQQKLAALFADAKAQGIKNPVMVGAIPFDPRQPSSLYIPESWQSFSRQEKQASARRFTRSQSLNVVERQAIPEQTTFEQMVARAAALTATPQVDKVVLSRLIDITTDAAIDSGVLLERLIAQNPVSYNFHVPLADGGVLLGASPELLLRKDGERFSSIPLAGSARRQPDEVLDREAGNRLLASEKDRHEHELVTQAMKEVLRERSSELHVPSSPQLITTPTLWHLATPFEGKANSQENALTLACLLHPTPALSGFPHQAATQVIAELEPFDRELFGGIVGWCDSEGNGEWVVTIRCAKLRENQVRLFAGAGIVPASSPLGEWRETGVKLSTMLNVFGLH

NtICS = biological target: T4, NtICS (Nicotiana tabacum, UniProt A0A286T848); test: in planta SA accumulation with co-expressed IPL; type: cell-based; conditions: endogenous chorismate, N. benthamiana leaves, ICS to IPL 1:19
T4 sequence (A0A286T848 48-584): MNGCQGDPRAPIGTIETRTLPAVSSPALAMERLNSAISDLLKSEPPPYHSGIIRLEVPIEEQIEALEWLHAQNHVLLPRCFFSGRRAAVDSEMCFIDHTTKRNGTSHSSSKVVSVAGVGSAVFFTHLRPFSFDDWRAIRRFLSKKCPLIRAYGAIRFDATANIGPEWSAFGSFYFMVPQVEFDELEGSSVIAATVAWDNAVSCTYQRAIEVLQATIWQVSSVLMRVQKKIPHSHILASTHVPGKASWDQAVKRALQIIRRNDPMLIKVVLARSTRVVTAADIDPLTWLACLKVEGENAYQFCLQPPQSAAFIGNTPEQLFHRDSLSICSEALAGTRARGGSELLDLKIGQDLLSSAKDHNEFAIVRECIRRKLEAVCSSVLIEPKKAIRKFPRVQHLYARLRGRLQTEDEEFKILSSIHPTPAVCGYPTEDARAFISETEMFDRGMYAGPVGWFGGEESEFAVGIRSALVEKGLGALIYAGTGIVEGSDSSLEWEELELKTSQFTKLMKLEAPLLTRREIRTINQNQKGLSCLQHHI

AtICS1 [2] = biological target: T5, AtICS1 (Arabidopsis thaliana, UniProt Q9S7H8, T531A); test: isochorismate converted into SA, SA measured; type: biochemical; conditions: 1 mM barium chorismate, 10 mM MgCl2, pH 7.5, 30 C, 1 h; crude E. coli fraction
T5 construct: gene ICS1; putative chloroplast transit peptide removed, N-terminal His6 (pET28a), E. coli SHuffle T7, crude desalted protein fraction; also C-terminal 3xFLAG in N. benthamiana leaves
T5 sequence (Q9S7H8 46-569 T531A): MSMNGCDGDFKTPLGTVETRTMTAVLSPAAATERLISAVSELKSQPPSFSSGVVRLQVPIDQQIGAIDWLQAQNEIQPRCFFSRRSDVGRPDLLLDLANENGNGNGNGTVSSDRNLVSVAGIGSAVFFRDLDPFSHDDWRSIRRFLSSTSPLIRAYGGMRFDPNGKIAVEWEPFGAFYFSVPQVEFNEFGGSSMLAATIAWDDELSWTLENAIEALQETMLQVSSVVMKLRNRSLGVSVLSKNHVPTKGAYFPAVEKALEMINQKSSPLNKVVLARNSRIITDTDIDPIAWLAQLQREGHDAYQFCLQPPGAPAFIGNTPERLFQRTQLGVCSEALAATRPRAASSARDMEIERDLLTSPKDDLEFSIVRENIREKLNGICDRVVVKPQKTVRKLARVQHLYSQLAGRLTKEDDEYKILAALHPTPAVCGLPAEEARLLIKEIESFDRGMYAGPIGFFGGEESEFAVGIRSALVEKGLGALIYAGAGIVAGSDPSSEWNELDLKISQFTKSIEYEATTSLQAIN

T1 sequence (Q9S7H8 46-569): as the sequence (Q9S7H8 46-569 T531A) above, with A486T counted along it
Sequence of NbICS (A0A286T8R2 53-590): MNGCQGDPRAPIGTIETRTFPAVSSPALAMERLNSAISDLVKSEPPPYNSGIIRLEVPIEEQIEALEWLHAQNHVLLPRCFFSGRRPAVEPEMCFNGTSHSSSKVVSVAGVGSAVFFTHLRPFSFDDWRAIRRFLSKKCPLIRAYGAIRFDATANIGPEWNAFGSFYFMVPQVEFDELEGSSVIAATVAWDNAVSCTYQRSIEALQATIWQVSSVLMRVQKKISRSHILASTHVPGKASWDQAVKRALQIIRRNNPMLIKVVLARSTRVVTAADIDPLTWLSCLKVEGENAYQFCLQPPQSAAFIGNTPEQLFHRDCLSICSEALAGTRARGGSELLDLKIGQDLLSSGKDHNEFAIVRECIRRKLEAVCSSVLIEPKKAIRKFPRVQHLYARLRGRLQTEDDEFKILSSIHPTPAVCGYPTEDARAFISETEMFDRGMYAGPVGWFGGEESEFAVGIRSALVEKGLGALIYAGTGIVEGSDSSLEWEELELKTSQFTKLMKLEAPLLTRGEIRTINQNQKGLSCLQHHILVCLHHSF

C=C(O[C@@H]1C=C(C(=O)O)C=C[C@H]1O)C(=O)O [chorismate]
ICS activity (AtICS1 [1]): AtICS1 and EntC showed activity that was much higher than the empty vector control | SA level (NbICS): expression of NtICS or NbICS with IPL resulted in significant increases in the levels of SA | SA level (OsICS): OsICS with TP^AtICS1 or TP^SS showed low but significant levels of ICS activity in planta | ICS activity (EntC): AtICS1 and EntC showed activity that was much higher than the empty vector control | SA level (NtICS): expression of NtICS or NbICS with IPL resulted in significant increases in the levels of SA | ICS activity (AtICS1 [2]): The T531A mutant showed the lowest activity compared with the S537T and I550A mutants

— PMC5843753, “Comparative analysis of plant isochorismate synthases reveals structural mechanisms underlying their distinct biochemical properties” (Bioscience Reports, 2018)
